Data published in patent publication US8871933B2, “Purified pyrroloquinolinyl-pyrrolidine-2,5-dione compositions and methods for preparing and using same” (ArQule, Inc., priority 2009, dated 2014).
≈ marks a conversion by molar mass, not a printed value. One block for each compound: values may come before it.

Key:
MDA-MB-231 cells = test: Colony formation / surviving fraction assay; format: cell-based; conditions: Homo sapiens, two days incubation, colonies counted two weeks later, read-out: IC50 (surviving fraction equaled 50)
Method: MDA-MB-231 cells (ATCC #HTB-26), grown in DMEM plus 15% heat inactivated fetal bovine serum plus 10 mM HEPES pH 7.5, were plated in 60 mm^2 plates (2×10^5 cells per plate). After two days candidate compounds in DMSO at various concentrations were diluted in media and added to individual plates such that the final DMSO concentration in the cell culture media was 0.1%. After two days incubation the culture was trypsinized, cells were washed with media, counted using a hemocytometer and 500 cells, including cell bodies, were plated in 100 mm^2 plates in media. Two weeks later the media was removed and the cell colonies were fixed with methanol for 10 minutes, stained with 1% crystal violet for 10 minutes, washed with water and air dried. Cell colonies were visually counted when there were greater then 50 cells present per colony. Plating efficiency was defined as the average number of colonies formed divided by 500. The surviving fraction was defined as the plating efficiency of a candidate compound divided by the plating efficiency of DMSO multiplied by 100. For candidate compound titrations, the IC50 value was determined by fitting the equation y=Ae^Bx to the data points and extrapolating the concentration where surviving fraction equaled 50. […]

c-Met = c-Met (Homo sapiens, UniProt P08581); test: c-Met phosphorylation in MDA-MB-231 cells, basal and HGF-induced (Western blot); format: cell-based; design: Whole cell extracts were prepared in lysis buffer; endogenous in cells; host or cells: MDA-MB-231; conditions: 20 μM
Sequence of c-Met (P08581 25-1390): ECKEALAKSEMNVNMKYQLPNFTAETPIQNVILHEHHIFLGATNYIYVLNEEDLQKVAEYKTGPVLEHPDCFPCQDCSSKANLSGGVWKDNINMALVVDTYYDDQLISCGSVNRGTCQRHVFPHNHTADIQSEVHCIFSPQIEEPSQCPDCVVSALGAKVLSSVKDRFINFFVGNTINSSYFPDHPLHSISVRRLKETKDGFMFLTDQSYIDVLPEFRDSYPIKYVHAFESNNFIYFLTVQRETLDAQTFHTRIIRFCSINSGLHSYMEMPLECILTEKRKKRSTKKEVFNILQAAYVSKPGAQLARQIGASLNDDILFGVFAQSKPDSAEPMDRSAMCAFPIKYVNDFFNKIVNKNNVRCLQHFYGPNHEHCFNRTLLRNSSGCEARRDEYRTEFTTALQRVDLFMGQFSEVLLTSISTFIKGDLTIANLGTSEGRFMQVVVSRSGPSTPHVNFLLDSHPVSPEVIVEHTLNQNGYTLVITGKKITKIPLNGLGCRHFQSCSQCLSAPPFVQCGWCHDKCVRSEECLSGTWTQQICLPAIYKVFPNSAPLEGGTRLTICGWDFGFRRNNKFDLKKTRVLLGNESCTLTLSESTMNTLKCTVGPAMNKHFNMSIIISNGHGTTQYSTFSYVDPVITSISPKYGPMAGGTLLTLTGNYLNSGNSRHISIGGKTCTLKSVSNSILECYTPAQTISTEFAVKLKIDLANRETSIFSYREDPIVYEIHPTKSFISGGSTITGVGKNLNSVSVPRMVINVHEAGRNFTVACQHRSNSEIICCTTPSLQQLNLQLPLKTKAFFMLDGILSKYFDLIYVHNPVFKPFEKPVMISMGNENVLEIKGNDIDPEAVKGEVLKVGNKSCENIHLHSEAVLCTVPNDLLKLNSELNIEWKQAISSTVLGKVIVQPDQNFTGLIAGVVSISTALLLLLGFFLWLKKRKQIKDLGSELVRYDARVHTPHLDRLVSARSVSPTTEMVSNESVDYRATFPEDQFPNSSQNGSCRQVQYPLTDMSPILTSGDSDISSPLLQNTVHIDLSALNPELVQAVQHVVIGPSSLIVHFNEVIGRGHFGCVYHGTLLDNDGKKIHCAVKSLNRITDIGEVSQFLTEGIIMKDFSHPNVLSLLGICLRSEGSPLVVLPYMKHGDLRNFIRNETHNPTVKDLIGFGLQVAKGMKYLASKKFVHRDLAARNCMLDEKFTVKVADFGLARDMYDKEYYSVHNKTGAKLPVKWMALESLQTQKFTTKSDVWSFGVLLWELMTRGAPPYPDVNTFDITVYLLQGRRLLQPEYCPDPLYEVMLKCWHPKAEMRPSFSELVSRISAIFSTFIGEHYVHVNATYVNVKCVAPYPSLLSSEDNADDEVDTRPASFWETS
Method: MDA-MB-231 cells were serum-deprived overnight (16 hours) in the absence or in the presence of the indicated concentrations of the separate enantiomers (+)-trans-3-(5,6-dihydro-4H-pyrrolo[3,2,1-ij]quinolin-1-yl)-4-(1H-indol-3-yl)pyrrolidine-2,5-dione and (−)-trans-3-(5,6-dihydro-4H-pyrrolo[3,2,1-ij]quinolin-1-yl)-4-(1H-indol-3-yl)pyrrolidine-2,5-dione. Cells were treated with 100 ng/ml recombinant human Hepatocyte Growth Factor/Scatter Factor (HGF/SF) (R&D Systems #294-HG) for 10 minutes. Whole cell extracts were prepared in lysis buffer (20 mM Tris-HCl pH 7.5, 150 mM NaCl, 1 mM Na2EDTA, 1 mM EGTA, 1% Triton X-100, 2.5 mM sodium pyrophosphate, 1 mM beta-glycerophosphate, 1 mM Na3VO4, 1 μg/ml leupeptin, 1 mM phenylmethylsulfonyl fluoride) and sonicated. Protein concentration was measured by Bradford assay using the BioRad reagent (BioRad, Hercules, Calif.), according to the manufacturer's directions. Samples ([…] of protein) were resolved by 8% SDS-PAGE under reducing conditions and transferred onto a PVDF membrane (BioRad). […] Proteins were detected by incubation overnight at 4° C. in TBS-T with 5% milk and either a polyclonal antibody against phosphorylated c-Met (#3121) or a monoclonal antibody against β-actin (A-5441) (Sigma), which was used as a control for total protein loading. […]

[1] = Storage stability of Form 2; format: physicochemical; conditions: 40° C./75% RH for up to six months and 25° C./60% RH for up to 12 months; multiple batches
physchem = format: physicochemical
Method: Form 1 and Form 2 have different equilibrium solubilities: Form 2=0.61 mg/mL and Form 1=0.51 mg/mL.

[2] = target: Recombinant Protein Kinase C; test: Protein Kinase C kinase assay (Histone H1, 32P-ATP, autoradiography); format: biochemical; design: dose or concentration left out as unconfirmed; conditions: for 15 minutes at room temperature
Method: Recombinant Protein Kinase C (Calbiochem) (100 ng) was incubated with (±)-cis-3-(5,6-dihydro-4H-pyrrolo[3,2,1-ij]quinolin-1-yl)-4-(1H-indol-3-yl)pyrrolidine-2,5-dione or (±)-trans-3-(5,6-dihydro-4H-pyrrolo[3,2,1-ij]quinolin-1-yl)-4-(1H-indol-3-yl)pyrrolidine-2,5-dione at […] for 15 minutes at room temperature. Subsequently, a radioactive labeling mix in kinase buffer (20 mM Tris-HCl pH 7.5, 10 mM MgCl2) containing 20 μM ATP, 0.2 μCi/μl γ^32P-ATP, 0.2 μg/μl Histone H1 (Upstate Biotechnology/Millipore, Bedford, Mass.) was added to each sample. The kinase reaction was carried out for 5 minutes at room temperature. Reaction products were analyzed by 12% SDS-PAGE and autoradiography.

[3] = system: MDA-MB-231 cells or MIA PaCa-2 (PACA-2) cells; test: Cell survival in six-well plates, Wright-Giemsa stain; format: cell-based; conditions: Homo sapiens; 0.1-2 μM, 10-15 days; MDA-MB-231 or Paca-2 cells, cell line of the IC50 not stated
Method: Exponentially growing MDA-MB-231 cells or MIA PaCa-2 (also known as PACA-2) cells were seeded at 1,000 cells per well in six-well plates and allowed to attach for 24 hours. MDA-MB-231 and MIA PaCa-2 cells were cultured in DMEM supplemented with 10% (v/v) fetal bovine serum (FBS) and 5 ml Penicillin/Streptomycin at 37° C. in 5% CO2. MDA-MB-231 and MIA PaCa-2 were established in estrogen receptor-negative human breast cancer and pancreatic carcinoma cell lines, respectively. (±)-cis-3-(5,6-dihydro-4H-pyrrolo[3,2,1-ij]quinolin-1-yl)-4-(1H-indol-3-yl)pyrrolidine-2,5-dione or (±)-trans-3-(5,6-dihydro-4H-pyrrolo[3,2,1-ij]quinolin-1-yl)-4-(1H-indol-3-yl)pyrrolidine-2,5-dione were each dissolved at a concentration of 10 mM in DMSO, and separately added to cells at a concentration of 0.1, 0.25, 0.5, 1 or 2 μM. Control plates received DMSO alone, at the same percentage of total culture volume as that administered in conjunction with the highest concentration of drug. Cell cultures were observed daily for 10-15 days, then fixed and stained with modified Wright-Giemsa stain (Sigma). Treatment with (±)-cis-3-(5,6-dihydro-4H-pyrrolo[3,2,1-ij]quinolin-1-yl)-4-(1H-indol-3-yl)pyrrolidine-2,5-dione or (±)-trans-3-(5,6-dihydro-4H-pyrrolo[3,2,1-ij]quinolin-1-yl)-4-(1H-indol-3-yl)pyrrolidine-2,5-dione results in cell death of MDA-MB-231 cells or Paca-2 cells. See, e.g., FIG. 2.

[4] = Interconversion experiments (thermodynamic stability of polymorphs); format: physicochemical
Method: Form 1 is orthorhombic and contains four molecules of (−)-trans-3-(5,6-dihydro-4H-pyrrolo[3,2,1-ij]quinolin-1-yl)-4-(1H-indol-3-yl)pyrrolidine-2,5-dione per cell. Form 1 has a melting point of ˜218° C. recorded in DSC (See, FIG. 16).
The two polymorphs can be interconverted when proper conditions are used to control the crystallization process. Form 2 can be obtained by dissolving Form 1 in methanol, seeding with Form 2 and evaporating the mixture to dryness by rotary evaporation. The successful conversion was determined to be Form 2 by IR analysis and corroborated by XRPD analysis.

Compound: O=C1NC(=O)[C@@H](c2cn3c4c(cccc24)CCC3)[C@@H]1c1c[nH]c2ccccc12 [Form 2, (−)-trans-3-(5,6-dihydro-4H-pyrrolo[3,2,1-ij]quinolin-1-yl)-4-(1H-indol-3-yl)pyrrolidine-2,5-dione]
- change in crystalline form or purity upon storage [1]: No discernable change in crystalline form or purity
- solubility thermodynamic (physchem; thermodynamic from solid, equilibrium solubilities): 610 µg/mL (≈ 1650 µM)

Compound: O=C1NC(=O)[C@@H](c2cn3c4c(cccc24)CCC3)[C@H]1c1c[nH]c2ccccc12 (racemic) [(±)-cis-3-(5,6-dihydro-4H-pyrrolo[3,2,1-ij]quinolin-1-yl)-4-(1H-indol-3-yl)pyrrolidine-2,5-dione]
- kinase activity in comparison to treatment with carrier alone [2]: did not reduce kinase activity
- IC50 [3]: 500 nM

Compound: O=C1NC(=O)[C@@H](c2cn3c4c(cccc24)CCC3)[C@@H]1c1c[nH]c2ccccc12 (racemic) [(±)-trans-3-(5,6-dihydro-4H-pyrrolo[3,2,1-ij]quinolin-1-yl)-4-(1H-indol-3-yl)pyrrolidine-2,5-dione]
- kinase activity in comparison to treatment with carrier alone [2]: did not reduce kinase activity
- IC50 [3]: 500 nM

Second part, led by results:

- inhibitory effect on c-Met phosphorylation (c-Met): only a minimum inhibitory effect
Compound: O=C1NC(=O)[C@@H](c2cn3c4c(cccc24)CCC3)[C@@H]1c1c[nH]c2ccccc12 [(+)-trans-3-(5,6-dihydro-4H-pyrrolo[3,2,1-ij]quinolin-1-yl)-4-(1H-indol-3-yl)pyrrolidine-2,5-dione]
- IC50 (MDA-MB-231 cells): 4100 nM

- equilibrium solubilities (physchem): 0.51 mg/mL
Compound: O=C1NC(=O)[C@@H](c2cn3c4c(cccc24)CCC3)[C@@H]1c1c[nH]c2ccccc12 [Form 1, (−)-trans-3-(5,6-dihydro-4H-pyrrolo[3,2,1-ij]quinolin-1-yl)-4-(1H-indol-3-yl)pyrrolidine-2,5-dione]
- thermodynamic stability [4]: more thermodynamically stable than Form 2
